# Literature values as cited in patent US9617279B1, “Imidazooxadiazole compounds” (BRISTOL-MYERS SQUIBB COMPANY, priority 2014, dated 2017).
# Tests used:
# [1] = molecular target: T1, protease-activated receptor type 4 (PAR4) (Homo sapiens, UniProt Q96RI0); conditions: abstract of Lee et al. 2001
# T1 sequence (Q96RI0 18-385): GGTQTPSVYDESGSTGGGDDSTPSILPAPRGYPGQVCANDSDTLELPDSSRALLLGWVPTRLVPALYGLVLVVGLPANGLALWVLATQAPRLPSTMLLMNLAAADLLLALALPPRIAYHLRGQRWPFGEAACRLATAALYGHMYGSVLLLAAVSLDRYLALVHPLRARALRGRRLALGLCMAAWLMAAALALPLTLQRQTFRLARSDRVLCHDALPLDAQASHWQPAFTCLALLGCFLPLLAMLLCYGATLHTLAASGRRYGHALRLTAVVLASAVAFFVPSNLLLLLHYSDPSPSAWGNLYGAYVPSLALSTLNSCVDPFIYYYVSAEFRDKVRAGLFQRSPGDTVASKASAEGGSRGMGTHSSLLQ
# PAR1 = molecular target: T2, PAR1 (Homo sapiens, UniProt P25116); conditions: ACS patients, phase III
# T2 sequence (P25116 22-425): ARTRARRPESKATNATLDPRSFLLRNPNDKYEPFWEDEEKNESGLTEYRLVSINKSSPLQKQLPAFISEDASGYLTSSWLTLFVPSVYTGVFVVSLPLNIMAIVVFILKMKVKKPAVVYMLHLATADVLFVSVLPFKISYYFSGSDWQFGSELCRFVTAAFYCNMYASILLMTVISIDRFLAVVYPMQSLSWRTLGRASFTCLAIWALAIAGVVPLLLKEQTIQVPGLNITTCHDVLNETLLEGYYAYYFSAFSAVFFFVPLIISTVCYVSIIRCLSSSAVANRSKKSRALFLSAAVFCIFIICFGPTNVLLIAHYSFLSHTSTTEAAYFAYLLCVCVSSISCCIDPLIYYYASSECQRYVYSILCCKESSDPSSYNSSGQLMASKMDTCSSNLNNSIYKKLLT
SMILES,inhibition of PAR4-dependent platelet activation [1],cardiovascular events (PAR1),risk of major bleeding (PAR1)
CCOC(=O)c1ccc(-c2nn(Cc3ccccc3)c3ccccc23)cc1 [ethyl 4-(1-benzyl-1H-indazol-3-yl)benzoate],selective and potent inhibitor,,
CCOC(=O)N[C@@H]1CC[C@@H]2[C@@H](C1)C[C@H]1C(=O)O[C@H](C)[C@H]1[C@H]2/C=C/c1ccc(-c2cccc(F)c2)cn1 [vorapaxar],,did not significantly reduce,significantly increased
